From patent US9340507B2, “Substituted 4-pyridones and their use as inhibitors of neutrophil elastase activity” (Boehringer Ingelheim International GmbH, priority 2012, dated 2016) come the findings set out here.

By IC50 is commonly meant the midpoint of a concentration-inhibition curve.

The target in the test is Human neutrophil elastase (Homo sapiens (Human), UniProt P08246). In words: Human Neutrophil Elastase Assay. It counts as biochemical. The note with it: substrate MeOSuc-Ala-Ala-Pro-Val-AMC 250 μM, pH 7.5, fluorescence. The protocol: Human Neutrophil Elastase Assay
Sequence of Human neutrophil elastase (P08246 30-267): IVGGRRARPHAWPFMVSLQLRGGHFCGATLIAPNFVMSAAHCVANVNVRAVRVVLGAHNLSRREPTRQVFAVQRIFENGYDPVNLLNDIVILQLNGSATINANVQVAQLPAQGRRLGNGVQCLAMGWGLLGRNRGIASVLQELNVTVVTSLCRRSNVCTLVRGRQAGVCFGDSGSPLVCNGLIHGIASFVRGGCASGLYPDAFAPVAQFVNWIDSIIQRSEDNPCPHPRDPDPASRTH
All other materials were of the highest grade commercially available.
The following buffers were used: Compound buffer: 100 mM Tris, 500 mM NaCl, adjusted to pH 7.5; Assay buffer: 100 mM Tris, 500 mM NaCl, adjusted to pH 7.5, containing 0.01% BSA.
Assay conditions: Test compounds were prediluted in DMSO and subsequently in compound buffer (5% DMSO final). […] After inactivation of the enzyme, fluorescence intensities were measured at 380 nm excitation and 460 nm emission wavelengths.
Each plate contains wells with a high value control (DMSO+enzyme+substrate) and wells with a low value control (DMSO+inactivated enzyme+substrate). IC50 values were estimated using a sigmoidal concentration response curve with variable slope. Means of low values were taken as 0%, means of high values as 100%. IC50 values of selected compound in the Neutrophil Elastase assay: […]
As to `Cc1c(-c2cccc(C(F)(F)F)c2)c(=O)c(C(=O)NCc2ccc(S(C)(=O)=O)cc2)cn1C1CCC1` [Example 7, 1-Cyclobutyl-6-methyl-4-oxo-5-(3-trifluoromethyl-phenyl)-1,4-dihydro-pyridine-3-carboxylic acid 4-methanesulfonyl-benzylamide], half-maximal inhibition (IC50) required 27 nM.

For the compound `Cc1nnc(CNC(=O)c2cn(C3CCCC3)c(C)c(-c3cccc(C(F)(F)F)c3)c2=O)o1` [Example 8.1, 1-Cyclopentyl-6-methyl-4-oxo-5-(3-trifluoromethyl-phenyl)-1,4-dihydro-pyridine-3-carboxylic acid (5-methyl-[1,3,4]oxadiazol-2-ylmethyl)-amide], it took 43 nM to reach half-maximal inhibition (IC50).

The compound `Cc1nnc(CNC(=O)c2cn(C3CCCC3)c(C)c(-c3cccc(C(F)F)c3)c2=O)o1` [Example 9.1, 1-Cyclopentyl-5-(3-difluoromethyl-phenyl)-6-methyl-4-oxo-1,4-dihydro-pyridine-3-carboxylic acid (5-methyl-[1,3,4]oxadiazol-2-ylmethyl)-amide] registered an IC50 of 28 nM.

`Cc1c(-c2cccc(C(F)F)c2)c(=O)c(C(=O)NCc2ccc(S(C)(=O)=O)cc2)cn1C1CCCC1` [Example 9.2, 1-Cyclopentyl-5-(3-difluoromethyl-phenyl)-6-methyl-4-oxo-1,4-dihydro-pyridine-3-carboxylic acid 4-methanesulfonyl-benzylamide] registered an IC50 of 18 nM.

Consider `CCn1cc(C(=O)NCc2ccc(S(C)(=O)=O)cc2)c(=O)c(-c2cccc(C(F)F)c2)c1C` [Example 10, 5-(3-Difluoromethyl-phenyl)-1-ethyl-6-methyl-4-oxo-1,4-dihydro-pyridine-3-carboxylic acid 4-methanesulfonyl-benzylamide], for which the IC50 stood at 29 nM.

As to `CC[C@@H](C)n1cc(C(=O)NCc2ccc(S(C)(=O)=O)cc2)c(=O)c(-c2cccc(C(F)F)c2)c1C` [Example 11.1, (R)-1-sec-Butyl-5-(3-difluoromethyl-phenyl)-6-methyl-4-oxo-1,4-dihydro-pyridine-3-carboxylic acid 4-methanesulfonyl-benzylamide], the IC50 amounted to 8 nM.

On to `CC[C@@H](C)n1cc(C(=O)NCc2ccc(S(C)(=O)=O)cc2)c(=O)c(-c2ccnc(C(F)(F)F)c2)c1C` [Example 11.2, (R)-1-sec-Butyl-2-methyl-4-oxo-2′-trifluoromethyl-1,4-dihydro-[3,4]bipyridinyl-5-carboxylic acid 4-methanesulfonyl-benzylamide], for which the IC50 was determined as 35 nM.

For the compound `CC[C@H](C)n1cc(C(=O)NCc2ccc(S(C)(=O)=O)cc2)c(=O)c(-c2cccc(C(F)(F)F)c2)c1C` [Example 12.1, (S)-1-sec-Butyl-6-methyl-4-oxo-5-(3-trifluoromethyl-phenyl)-1,4-dihydro-pyridine-3-carboxylic acid 4-methanesulfonyl-benzylamide], the IC50 was determined as 9 nM.

Take `CC[C@H](C)n1cc(C(=O)NCc2ccc(S(C)(=O)=O)cc2)c(=O)c(-c2cccc(C(F)F)c2)c1C` [Example 12.2, (S)-1-sec-Butyl-5-(3-difluoromethyl-phenyl)-6-methyl-4-oxo-1,4-dihydro-pyridine-3-carboxylic acid 4-methanesulfonyl-benzylamide]: half-maximal inhibition (IC50) was put at 12 nM.

Regarding `CC[C@H](C)n1cc(C(=O)NCc2ccc(S(C)(=O)=O)cc2)c(=O)c(-c2ccnc(C(F)(F)F)c2)c1C` [Example 12.3, (S)-1-sec-Butyl-2-methyl-4-oxo-2′-trifluoromethyl-1,4-dihydro-[3,4]bipyridinyl-5-carboxylic acid 4-methanesulfonyl-benzylamide], it took 54 nM to reach half-maximal inhibition (IC50).

Regarding `CCC(CC)n1cc(C(=O)NCc2ccc(S(C)(=O)=O)cc2)c(=O)c(-c2cccc(C(F)F)c2)c1C` [Example 15.2, 5-(3-Difluoromethyl-phenyl)-1-(1-ethyl-propyl)-6-methyl-4-oxo-1,4-dihydro-pyridine-3-carboxylic acid 4-methanesulfonyl-benzylamide], the IC50 is 8 nM.

Compound `CCC(CC)n1cc(C(=O)NCc2ccc(S(C)(=O)=O)cc2)c(=O)c(-c2ccnc(C(F)(F)F)c2)c1C` [Example 15.3, 1-(1-Ethyl-propyl)-2-methyl-4-oxo-2′-trifluoromethyl-1,4-dihydro-[3,4]bipyridinyl-5-carboxylic acid 4-methanesulfonyl-benzylamide] showed an IC50 of 24 nM.

Turning to `COCCn1cc(C(=O)NCc2ccc(S(C)(=O)=O)c[n+]2[O-])c(=O)c(-c2cccc(C(F)(F)F)c2)c1C` [Example 16, 1-(2-Methoxy-ethyl)-6-methyl-4-oxo-5-(3-trifluoromethyl-phenyl)-1,4-dihydro-pyridine-3-carboxylic acid (5-methanesulfonyl-1-oxy-pyridin-2-ylmethyl)-amide], the IC50 stood at 63 nM.

Regarding `Cc1c(-c2cccc(C(F)F)c2)c(=O)c(C(=O)NCc2ccc(S(C)(=O)=O)cn2)cn1C(C)C` [Example 17.2, 5-(3-Difluoromethyl-phenyl)-1-isopropyl-6-methyl-4-oxo-1,4-dihydro-pyridine-3-carboxylic acid (5-methanesulfonyl-pyridin-2-ylmethyl)-amide], half-maximal inhibition (IC50) was put at 15 nM.

Compound `Cc1c(-c2ccnc(C(F)(F)F)c2)c(=O)c(C(=O)NCc2ccc(S(C)(=O)=O)cn2)cn1C(C)C` [Example 17.3, 1-Isopropyl-2-methyl-4-oxo-2′-trifluoromethyl-1,4-dihydro-[3,4]bipyridinyl-5-carboxylic acid (5-methanesulfonyl-pyridin-2-ylmethyl)-amide] gave an IC50 of 77 nM.

Compound `Cc1c(-c2cccc(C(F)(F)F)c2)c(=O)c(C(=O)NCc2ccc(S(C)(=O)=O)cn2)cn1C1CCC1` [Example 18.1, 1-Cyclobutyl-6-methyl-4-oxo-5-(3-trifluoromethyl-phenyl)-1,4-dihydro-pyridine-3-carboxylic acid (5-methanesulfonyl-pyridin-2-ylmethyl)-amide] displayed an IC50 of 32 nM.

`Cc1c(-c2cccc(C(F)F)c2)c(=O)c(C(=O)NCc2ccc(S(C)(=O)=O)cn2)cn1C1CCC1` [Example 18.2, 1-Cyclobutyl-5-(3-difluoromethyl-phenyl)-6-methyl-4-oxo-1,4-dihydro-pyridine-3-carboxylic acid (5-methanesulfonyl-pyridin-2-ylmethyl)-amide] registered an IC50 of 35 nM.

Compound `CC[C@@H](C)n1cc(C(=O)NCc2ccc(S(C)(=O)=O)cn2)c(=O)c(-c2cccc(C(F)F)c2)c1C` [Example 19.2, (R)-1-sec-Butyl-5-(3-difluoromethyl-phenyl)-6-methyl-4-oxo-1,4-dihydro-pyridine-3-carboxylic acid (5-methanesulfonyl-pyridin-2-ylmethyl)-amide] had an IC50 of 10 nM.

For the compound `CC[C@@H](C)n1cc(C(=O)NCc2ccc(S(C)(=O)=O)cn2)c(=O)c(-c2ccnc(C(F)(F)F)c2)c1C` [Example 19.3, (R)-1-sec-Butyl-2-methyl-4-oxo-2′-trifluoromethyl-1,4-dihydro-[3,4′]bipyridinyl-5-carboxylic acid (5-methanesulfonyl-pyridin-2-ylmethyl)-amide], the concentration for half-maximal inhibition (IC50) stood at 40 nM.

The compound `CC[C@H](C)n1cc(C(=O)NCc2ccc(S(C)(=O)=O)cn2)c(=O)c(-c2cccc(C(F)F)c2)c1C` [Example 20.2, (S)-1-sec-Butyl-5-(3-difluoromethyl-phenyl)-6-methyl-4-oxo-1,4-dihydro-pyridine-3-carboxylic acid (5-methanesulfonyl-pyridin-2-ylmethyl)-amide] yielded an IC50 of 11 nM.

`CC[C@H](C)n1cc(C(=O)NCc2ccc(S(C)(=O)=O)cn2)c(=O)c(-c2ccnc(C(F)(F)F)c2)c1C` [Example 20.3, (S)-1-sec-Butyl-2-methyl-4-oxo-2′-trifluoromethyl-1,4-dihydro-[3,4]bipyridinyl-5-carboxylic acid (5-methanesulfonyl-pyridin-2-ylmethyl)-amide] came in with an IC50 of 63 nM.

The compound `COCCn1cc(C(=O)NCc2ccc(S(C)(=O)=O)cn2)c(=O)c(-c2cccc(C(F)(F)F)c2)c1C` [Example 21, 1-(2-Methoxy-ethyl)-6-methyl-4-oxo-5-(3-trifluoromethyl-phenyl)-1,4-dihydro-pyridine-3-carboxylic acid (5-methanesulfonyl-pyridin-2-ylmethyl)-amide] gave an IC50 of 43 nM.

The compound `Cc1c(-c2cccc(C(F)(F)F)c2)c(=O)c(C(=O)NCc2ccc(S(C)(=O)=O)cn2)cn1C1CCOC1` (centres unmarked) [Example 22, 6-Methyl-4-oxo-1-(tetrahydro-furan-3-yl)-5-(3-trifluoromethyl-phenyl)-1,4-dihydro-pyridine-3-carboxylic acid (5-methanesulfonyl-pyridin-2-ylmethyl)-amide] gave an IC50 of 27 nM.

`CCC(CC)n1cc(C(=O)NCc2ccc(S(C)(=O)=O)cn2)c(=O)c(-c2cccc(C(F)(F)F)c2)c1C` [Example 23.1, 1-(1-Ethyl-propyl)-6-methyl-4-oxo-5-(3-trifluoromethyl-phenyl)-1,4-dihydro-pyridine-3-carboxylic acid (5-methanesulfonyl-pyridin-2-ylmethyl)-amide] had an IC50 of 12 nM.

The compound `CCC(CC)n1cc(C(=O)NCc2ccc(S(C)(=O)=O)cn2)c(=O)c(-c2cccc(C(F)F)c2)c1C` [Example 23.2, 5-(3-Difluoromethyl-phenyl)-1-(1-ethyl-propyl)-6-methyl-4-oxo-1,4-dihydro-pyridine-3-carboxylic acid (5-methanesulfonyl-pyridin-2-ylmethyl)-amide] registered an IC50 of 5 nM.

`CCC(CC)n1cc(C(=O)NCc2ccc(S(C)(=O)=O)cn2)c(=O)c(-c2ccnc(C(F)(F)F)c2)c1C` [Example 23.3, 1-(1-Ethyl-propyl)-2-methyl-4-oxo-2′-trifluoromethyl-1,4-dihydro-[3,4]bipyridinyl-5-carboxylic acid (5-methanesulfonyl-pyridin-2-ylmethyl)-amide] showed an IC50 of 46 nM.
